# Results as given in patent US5700779A (Cortech, Inc., priority 1996, dated 1997).
# Values joined by “and” are separate entries in the source; they are usually repeats but may differ in a detail not shown here. Identical values can stand only once. Where no end group is shown, it is not given here. [ ]: non-standard residue; d: D form. Oic = O=C(O)[C@@H]1C[C@@H]2CCCC[C@@H]2N1; Hyp = O=C(O)[C@@H]1C[C@@H](O)CN1; dTic = O=C(O)[C@H]1Cc2ccccc2CN1; 2Thi = N[C@@H](Cc1cccs1)C(=O)O
# How the values were obtained:
# [1] = target: T1, bradykinin type 2 (BK2) receptors (Rattus norvegicus, UniProt P25023); experiment: standard rat uterus pA2 assay (in vitro B2 antagonist activity); conditions: for % Recovery: recovery of agonist response after washing 40 minutes following highest antagonist concentration; for activity in rat uterus functional tissue assay: summary of Table 1; for B2 pA2 (Rat Uterus): antagonist preincubated for 15 minutes
# T1 construct: Uterine horns were removed, placed under a 1 g resting tension in 4 mL tissue baths; from tissue; host or cells: rat uterine horns (Sprague-Dawley, stilbesterol-pretreated)
# T1 sequence (P25023 1-396): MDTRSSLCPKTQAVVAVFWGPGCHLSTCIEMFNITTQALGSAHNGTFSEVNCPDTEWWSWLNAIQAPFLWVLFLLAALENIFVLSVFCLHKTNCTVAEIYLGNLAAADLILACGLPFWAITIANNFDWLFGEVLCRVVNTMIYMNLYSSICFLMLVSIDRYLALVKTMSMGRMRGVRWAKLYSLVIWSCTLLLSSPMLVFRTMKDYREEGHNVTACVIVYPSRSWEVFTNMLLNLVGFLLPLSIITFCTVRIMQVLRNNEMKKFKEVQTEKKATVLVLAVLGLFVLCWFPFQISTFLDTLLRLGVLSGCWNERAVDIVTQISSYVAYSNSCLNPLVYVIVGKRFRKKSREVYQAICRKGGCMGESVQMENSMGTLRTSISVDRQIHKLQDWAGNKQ
# Method: The standard rat uterus pA2 assay was conducted as follows:
# Female Sprague-Dawley rats (200-250 g) were pretreated with stilbesterol (100 μg/kg) and killed 18 hours later by a blow on the head and exsanguinated. Uterine horns were removed, placed under a 1 g resting tension in 4 mL tissue baths containing De Jalon's solution at 31° C. and aerated. […] Antagonist potency was calculated according to the method of Arunlakshana and Schild (Arunlakshana, O., Schild, H. O., Br. J. Pharmacology 14 48-58 (1959)). […] The difference in pD2 values compared to concurrent control reflected the "percentage recovery" of agonist response.
# BK2 receptors = target: T2, BK2 receptors (Oryctolagus cuniculus, UniProt Q28642); experiment: rabbit blood pressure BK2 ED50; format: in vivo
# T2 construct: from tissue; host or cells: live anesthetized New Zealand White rabbit (vascular system)
# T2 sequence (Q28642 1-367): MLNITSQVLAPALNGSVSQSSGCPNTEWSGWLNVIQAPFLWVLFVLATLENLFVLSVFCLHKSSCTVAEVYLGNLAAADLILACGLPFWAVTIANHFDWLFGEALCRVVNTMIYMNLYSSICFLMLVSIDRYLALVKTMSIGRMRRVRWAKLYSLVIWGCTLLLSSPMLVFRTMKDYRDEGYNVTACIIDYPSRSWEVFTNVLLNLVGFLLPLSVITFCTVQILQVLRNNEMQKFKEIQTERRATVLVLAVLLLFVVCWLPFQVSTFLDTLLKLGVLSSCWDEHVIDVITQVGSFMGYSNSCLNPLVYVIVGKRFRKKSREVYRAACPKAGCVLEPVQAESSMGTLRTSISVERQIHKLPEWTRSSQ
# Text: (§1) Male New Zealand White rabbits were anesthetized with pentobarbital and femoral arteries were cannulated for the recording of blood pressure. Cannulae were placed in the femoral veins for the bolus injection or continuous infusion of compounds. […] Following an equilibration period the specific experimental procedure was started.
# BK1 receptors = target: T3, BK1 receptors (Oryctolagus cuniculus, UniProt P48748); experiment: LPS-treated rabbit blood pressure BK1 ED50; format: in vivo; conditions: for BK1 ED50: LPS-treated rabbit, i.v. infusion
# T3 construct: upregulation of BK1 receptors in the vascular system; from tissue; host or cells: live anesthetized LPS-pretreated New Zealand White rabbit (vascular system)
# T3 sequence (P48748 1-352): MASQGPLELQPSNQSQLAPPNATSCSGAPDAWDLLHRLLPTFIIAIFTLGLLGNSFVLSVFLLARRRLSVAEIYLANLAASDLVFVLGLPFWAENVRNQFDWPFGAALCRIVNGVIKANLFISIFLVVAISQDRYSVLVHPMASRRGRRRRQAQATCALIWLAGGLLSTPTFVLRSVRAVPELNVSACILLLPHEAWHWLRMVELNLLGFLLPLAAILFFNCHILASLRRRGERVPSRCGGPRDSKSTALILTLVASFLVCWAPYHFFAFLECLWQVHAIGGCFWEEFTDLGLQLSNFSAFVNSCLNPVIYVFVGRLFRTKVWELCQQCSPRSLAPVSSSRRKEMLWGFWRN
# Method: as §1
# Stimulation of both pre-existing BK2 and induced BK1, receptors produces hypotension. […] Both agonists were tested in the absence and then in the presence of increasing doses of CP-0597 (1, 3, and 10 μg/kg/min).
# [2] = system: blood pressure responses to vasoactive agents; experiment: selectivity of intravenous CP-0597, rabbit blood pressure; format: in vivo; conditions: 0.1 μg/kg/min i.v.; for responses to the other vasoactive agents after antagonist: acetylcholine, norepinephrine, substance p, angiotensin, angiotensin II
# Text: as §1
# response to Bradykinin [3] = experiment: duration of action of intravenously infused CP-0597, rabbit blood pressure; format: in vivo; conditions: one hour (60 min) after 0.1 μg/kg/min infusion stopped
# Method: as §1
# CP-0597 (0.1 μg/kg/min) was intravenously infused for the above mentioned selectivity experiments.
# [4] = system: blood pressure responses to vasoactive agents; experiment: selectivity of subcutaneous CP-0597, rat blood pressure; format: in vivo; conditions: 1.0 mg/kg s.c., thirty minutes after injection
# Method: (§2) Male Sprague-Dawley rats were anesthetized with pentobarbital and femoral arteries were cannulated for the recording of blood pressure. Both femoral veins in each animal were cannulated for the administration of test compounds. […] Following an equilibration period the specific experimental procedure was started.
# Animals were then treated with CP-0597 (1.0 mg/kg s.c.). Thirty minutes after the s.c. injection each vasoactive agent was retested and compared to pre-antagonist responses.
# response to Bradykinin [5] = experiment: duration of action of i.v. bolus injections of CP-0597, rat blood pressure; format: in vivo
# Method: as §2
# At 3 μg/kg the response was ca. 50% inhibited and had returned to control by 30 minutes. At […] and 30 μg/kg the response was 100% inhibited with a 50% return to control level by 60 minutes and full recovery of response by 90 minutes.
# response to Bradykinin [6] = experiment: duration of action of subcutaneous CP-0597, rat blood pressure; format: in vivo; conditions: for inhibition of responses to Bradykinin, duration of action (s.c.): rat
# Method: as §2
# Animals were then given subcutaneous injections of CP-0597 (1 and 3 mg/kg s.c.). […] At 1 mg/kg s.c. the responses were still 100% inhibited at 3 hours post injection. At 3 mg/kg s.c. the responses were still 100% inhibited at 5 hours post injection.
# guinea pig ileum = experiment: activity on guinea pig ileum tissue
# [7] = target: T4, bradykinin type 1 (BK1) receptors (Oryctolagus cuniculus, UniProt P48748); experiment: rabbit aorta in vitro B1 antagonist activity; conditions: reversal of des-Arg9-bradykinin contraction of rabbit aorta strips
# T4 construct: Spiral strips were mounted under 2 g resting tension in 5 mL tissue baths; from tissue; host or cells: rabbit thoracic aorta spiral strips (New Zealand White)
# T4 sequence (P48748 1-352): T3 sequence (P48748 1-352)
# Method: Female New Zealand White rabbits were killed by overdose of pentobarbital (80 mg/kg i.v.) and the thoracic aorta removed. […] Two concentration-effect curves for des-Arg^9 -bradykinin were constructed at 1 and 3 hours. At five hours des-Arg^9 -bradykinin was added to the bath to a final concentration of […]. This produced stable, sustained and prolonged contractions of up to 45 minutes.
# [8] = target: T5, bradykinin type 2 (BK2) receptors (Cavia porcellus, UniProt O70526); experiment: antagonist binding to guinea pig ileum (tritium labeled bradykinin)
# T5 construct: from tissue; host or cells: guinea pig ileum membrane preparation (Hartley strain)
# T5 sequence (O70526 1-372): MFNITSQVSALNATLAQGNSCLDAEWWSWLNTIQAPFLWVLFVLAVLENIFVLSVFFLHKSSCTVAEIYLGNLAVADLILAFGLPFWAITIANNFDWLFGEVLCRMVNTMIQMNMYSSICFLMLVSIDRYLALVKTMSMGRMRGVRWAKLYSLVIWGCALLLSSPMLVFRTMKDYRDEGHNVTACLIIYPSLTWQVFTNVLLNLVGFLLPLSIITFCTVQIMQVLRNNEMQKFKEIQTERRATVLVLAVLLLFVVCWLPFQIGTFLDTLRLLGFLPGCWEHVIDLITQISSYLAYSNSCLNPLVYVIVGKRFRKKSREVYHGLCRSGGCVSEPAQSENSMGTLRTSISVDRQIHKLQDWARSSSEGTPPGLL
# Method: Radioactivity was determined by liquid scintillation counting.
# [9] = stability in porcine kidney cortical membranes; format: in vitro ADME; conditions: pig, pH 7.2, porcine kidney preparation
# Method: (§3) Rat or porcine lung and kidney cortical membranes were prepared using differential centrifugation as described by Skidgel (Booth, A. G. et al., Biochemical Journal 142, 575-581 (1974)) for lung or by Booth (Erdos, E. G. et al., Biochemical Pharmacology 33 3471-3478 (1984)) for kidney. Membrane preparations were stored at -20° C. […] Ten microliters of this working solution were delivered into a series of Eppendorf tubes, followed by human or guinea pig plasma (90 μL) or PBS as a control blank, and incubated for various time periods. At each time point the reaction was quenched with the addition of 100 μL 1N HCl in either acetonitrile or ethanol. Samples were allowed to stand approximately fifteen minutes and were then spun at 14,000 rpm for 10 minutes. Supernatant fractions were removed, filtered through 0.22 μM filters (Millipore) and analyzed by HPLC (C18, 12-80% acetonitrile in water, both containing 0.1% trifluoroacetic acid, monitoring at 214 nm.
# (§4) Porcine kidney lung preparations were diluted 1:10 with PBS; rat kidney preparations were diluted 1:100 with PBS; porcine lung preparations were diluted 1:1 in PBS. […] At various time points the reactions were quenched by the addition of 100 μL of ethanol, centrifuged and analyzed by HPLC as described above. The half-life for the disappearance of the HPLC peak was determined using the computer program ENZFIT (Elsevier).
# in vitro = conditions: pig, lung membranes, pH 7.2
# Method: as §3, §4
# [10] = i.v. bolus 10 μg/kg (text: 20%; Table 3: 10 μg/kg/min)
# [11] = i.v. bolus 30 μg/kg (Table 3: 30 μg/kg/min)
substance,measurement,setting,value
D-Arg-Arg-Hyp-Hyp-Gly-Thi-Ser-D-Tic-NChg-Arg [Compound 17],% Recovery,[1],60%
same,activity in rat uterus functional tissue assay,[1],highly potent antagonists
D-Arg-Arg-Pro-Hyp-Gly-Thi-Ser-D-Cpg-NChg-Arg [Compound 10],% Recovery,[1],75%
D-Arg-Arg-Pro-Hyp-Gly-Thi-Ser-D-NBng-NChg-Arg [Compound 7],B2 pA2 (Rat Uterus),[1],Agonist
same,activity in rat uterus functional tissue assay,[1],agonists
D-Arg-Arg-Pro-Hyp-Gly-Thi-Ser-D-NBng-Oic-Arg [Compound 6],% Recovery,[1],93%
D-Arg-Arg-Pro-Hyp-Gly-Thi-Ser-D-Phe-NChg-Arg [Compound 9],% Recovery,[1],87%
D-Arg-Arg-Pro-Hyp-Gly-Thi-Ser-D-Phe-NPhg-Arg [Compound 16],% Recovery,[1],60%
D-Arg-Arg-Pro-Hyp-Gly-Thi-Ser-D-Tic-NChg-Arg [Compound 5],% Recovery,[1],71%
same,activity in rat uterus functional tissue assay,[1],highly potent antagonists
same,ED50 blocking bradykinin at BK2 receptors in live rabbits,BK2 receptors,0.051 µg/kg/min
same,BK2 ED50,BK2 receptors; i.v. infusion,29.2 pmol/kg/min
same,BK1 ED50,BK1 receptors,1.7 nmol/kg/min
same,BK1 ED50,"BK1 receptors; des-Arg9 Bradykinin, listed as CP-0597",2.9 ± 0.92 µg/kg/min and 2.9 µg/kg/min
same,BK1 blocking activity in live rabbits,BK1 receptors; rabbit,2.9 µg/kg/min
same,response to Bradykinin after antagonist,[2],antagonized
same,responses to the other vasoactive agents after antagonist,[2],not affected
same,responses to the other vasoactive agents after antagonist,[2]; listed as CP-0597,unaffected
same,"inhibition of the response to Bradykinin, duration of action (i.v. infusion)",response to Bradykinin [3],100%
same,response to Bradykinin after antagonist,[4],antagonized
same,responses to the other vasoactive agents after antagonist,[4]; 1 mg/kg,not affected
same,responses to the other vasoactive agents after antagonist,"[4]; listed as CP-0597, 1 mg/kg",unaffected
same,time of return to control (100% recovery),response to Bradykinin [5]; i.v. bolus 3 μg/kg (Table 3: 3.0 μg/kg/min),≤ 30 min
same,inhibition of response to Bradykinin,response to Bradykinin [5]; [10],100%
same,time of 50% recovery,response to Bradykinin [5]; [10],≤ 60 min
same,time of 100% recovery,response to Bradykinin [5]; [10],≤ 90 min
same,inhibition of response to Bradykinin,response to Bradykinin [5]; [11],100%
same,time of 50% recovery,response to Bradykinin [5]; [11],≤ 60 min
same,time of 100% recovery,response to Bradykinin [5]; [11],≤ 90 min
same,"inhibition of responses to Bradykinin, duration of action (s.c.)","response to Bradykinin [6]; 1 mg/kg s.c., 3 hours post injection",100%
same,"inhibition of responses to Bradykinin, duration of action (s.c.)","response to Bradykinin [6]; 3 mg/kg s.c., 5 hours post injection",100%
same,blockage of agonist effect,"response to Bradykinin [6]; up to 5 hours after a subcutaneous dose (3 mg/Kg, rat)",complete blockage
D-Arg-Arg-Pro-Hyp-Gly-Thi-Ser-D-Tic-NCpg-Arg [Compound 8],% Recovery,[1],56%
same,activity in rat uterus functional tissue assay,[1],highly potent antagonists
D-Arg-Arg-Pro-Hyp-Gly-Thi-Ser-D-Tic-NMch-Arg [Compound 12],B2 pA2 (Rat Uterus),[1],Agonist
same,activity in rat uterus functional tissue assay,[1],agonists
same,activity on guinea pig ileum,guinea pig ileum,antagonist activity
D-Arg-Arg-Pro-Hyp-Gly-Thi-Ser-D-Tic-NPhg-Arg [Compound 15],% Recovery,[1],54%
same,activity in rat uterus functional tissue assay,[1],highly potent antagonists
"D-Arg-Arg-Pro-Hyp-Gly-Thi-Ser-D-Tic-Oic-Arg [HOE-140, reference compound]",% Recovery,[1],41%
same,B1 (Rabbit Aorta),[7],Inactive
D-Arg-Arg-Pro-Hyp-Gly-Thi-Ser-DTic-NChg [Compound 2],% Recovery,[1],0%
D-Arg-Arg-Pro-Hyp-Gly-Thi-Ser-Igl*-NChg-Arg [Compound 3],% Recovery,[1],100%
D-Arg-Arg-Pro-Hyp-Gly-Thi-Ser-Igl*-NChg-Arg [Compound 4],B2 pA2 (Rat Uterus),[1],Agonist
same,activity in rat uterus functional tissue assay,[1],agonists
D-Arg-Arg-Pro-Hyp-Gly-Thi-Ser-NBng-Oic [Compound 1],% Recovery,[1],32%
D-Arg-Arg-Pro-Hyp-Gly-Thi-Ser-NPeg-Oic-Arg [Compound 11],B2 pA2 (Rat Uterus),[1],Agonist
same,activity in rat uterus functional tissue assay,[1],agonists
"RPPGFSPFR [Bradykinin, Arg^1 -Pro^2 -Pro^3 -Gly^4 -Phe^5 -Ser^6 -Pro^7 -Phe^8 -Arg^9]",Ki,[8],0.0301 nM
same,half-life at 100 µM,[9],3 min
same,half-life at 100 µM,in vitro,3 min
"[dR]RP[Hyp]GGS[dTic][Oic]R [CP-0601, reference compound]",% Recovery,[1],75%
"[dR]RP[Hyp][2Thi]GS[dTic][Oic]R [CP-0589, reference compound]",% Recovery,[1],57%
δ-Gpa-Arg-Pro-Hyp-Gly-Thi-Ser-D-Tic-NChg-Arg [Compound 13],% Recovery,[1],66%
same,activity in rat uterus functional tissue assay,[1],highly potent antagonists
δ-Gpa-Pro-Hyp-Gly-Thi-Ser-D-Tic-NChg-Arg [Compound 14],% Recovery,[1],81%
